Assays:
[1] = Dairy cow feeding study: total indaziflam residue in milk and tissues after 29 consecutive days of dosing; type: in vivo, lactating Holstein dairy cows (Bos taurus)
Method: A feeding study was conducted to measure total indaziflam residue in milk, cream (milk fat), skim milk (whey), mesenteric (omental) fat, perirenal fat, subcutaneous fat, liver, kidney, muscle and excrement (feces or faeces) from lactating Holstein dairy cows (Bos taurus) following 29 consecutive days of dosing with indaziflam. The base daily dose of indaziflam was calculated to be 31 mg/kg dry matter feed. Four groups of cows were fed at 0 (control—two cows), 31 (1×—three cows), […] (3×—three cows) and 311 (10×—seven cows) mg/kg dry matter feed.
Milk was collected twice daily from all dose groups, morning and evening. Doses were administered after the morning milking. Milk was subsampled for analysis from the controls and all dose groups on study days 0, 2, 4, 7, 10, 14, 17, 21, 25, and 28. […]
The remaining cows (one control and four from the 10× dose level) entered the depuration phase of the study. […] Milk, tissues and excrement from the cows sacrificed at each interval were analyzed to monitor the decline of the residues of indaziflam and its metabolites. […]
The individual analyte derived residues were converted to indaziflam parent equivalents and summed to give a total indaziflam residue. The limit of quantitation (LOQ) for total indaziflam residue was 0.05 ppm for fat, kidney, muscle and liver. […]

medusahead = experiment: Pre-emergence control of medusahead; type: in vivo, Taeniatherum caput-medusae
From the text: (§1) This provides land managers with a new opportunity to start the process of eliminating the annual grass seed bank. […] This makes indaziflam an effective tool to start the process of depleting the invasive annual grass soil seed bank. Furthermore, providing long-term control of annual grasses with indaziflam results in both reduced thatch that serves as fuel for highly destructive wildfires, and the effective creation of firebreaks that protect communities of desirable perennials. As a result, native ecosystems are promoted, allowing for increased habitat for animal species of concern including wildlife and pollinators.

[2] = Human safety risk assessment (aggregate dietary and non-dietary exposure, current EPA practice); set-up: species or system US Population
From the text: Human safety risk assessments have been conducted, using current EPA practice, for all the current and proposed new uses of indaziflam. Chronic aggregate dietary exposure (food and water) will utilize less than 4% of the cPAD for the US Population. Acute aggregate dietary exposure (food and water) for the U.S. population, utilizes 7% of the aPAD.

[3] = pH 7; cited from earlier work
cheatgrass = experiment: Pre-emergence control of cheatgrass; type: in vivo, Bromus tectorum
From the text: as §1

[4] = Ruminant metabolism studies with 14C-labelled indaziflam; type: in vivo, ruminants; conditions: [triazine-2,4-14C] and [indane-3-14C] indaziflam
From the text: Ruminant metabolism studies have been conducted with both [triazine-2,4-^14C] indaziflam and [indane-3-^14C] indaziflam according to current EPA guidelines. Accumulation into the edible tissues was low and the metabolism of indaziflam in ruminants is well understood.

ventenata = experiment: Pre-emergence control of ventenata; type: in vivo, Ventenata dubia
From the text: as §1

Cc1ccc2c(c1)[C@H](Nc1nc(N)nc(C(C)F)n1)[C@@H](C)C2 (mixture of isomers) [indaziflam, N2-[(1R,2S)-2,3-dihydro-2,6-dimethyl-1H-inden-1-yl]-6-[(1RS)-1-fluoroethyl]-1,3,5-triazine-2,4-diamine]
Average total indaziflam residues in muscle ([1]; 1× rate, Day 29, LOQ 0.05 ppm): < LOQ
Residues in all tissues and milk in the depuration phase ([1]; 10× dose cows, 3 to 21 days after end of dosing): declined rapidly
Pre-emergence effectiveness compared with imazapic (medusahead): significantly more effective
Non-dietary and aggregate margins of exposure (food, drinking water, and non-dietary) [2]: above the Level of Concern
Acute aggregate dietary exposure (food and water), utilization of the aPAD ([2]; U.S. population): 7 % of the aPAD
Chronic aggregate dietary exposure (food and water), utilization of the cPAD ([2]; US Population, all current and proposed new uses): less than 4 % of the cPAD
log Kow [3]: 2.8
Pre-emergence effectiveness compared with imazapic (cheatgrass; cheatgrass): significantly more effective
Long-term control of cheatgrass (cheatgrass; single application): at least three years
Accumulation into the edible tissues [4]: low
Pre-emergence effectiveness compared with imazapic (ventenata): significantly more effective
